Where two headings read alike, the source gives them in different places.
Tests used:
[1] = Pharmacokinetic parameters for BH4 after single dose of sepiapterin or BH4 in fasted subjects; assay type: in vivo
Description: Six subjects received sepiapterin in each group and three subjects received BH4 in each group where this treatment was administered. Table 5. Summary of pharmacokinetic parameters for BH4 after administration of single dose of sepiapterin or BH4 in fasted subjects.
Values shown are means of plasma concentrations of BH4 following administration at the doses shown.

[2] = Food effect on administration of sepiapterin: plasma concentrations of BH4 and sepiapterin in fasted and fed subjects; assay type: in vivo; conditions: sepiapterin 10 mg/kg oral
Description: Method: Subjects received 2 oral doses of sepiapterin (10 mg/kg) separated by 1 week in a fasted and fed state. Subjects were fed a standard high-fat (approximately 50 percent of total caloric content of the meal) and high-calorie (approximately 800 to 1000 calories) meal starting 30 minutes prior to receiving their second oral dose of sepiapterin on Day 8.
Sampling for PK analysis occurred predose on Days 1 and 8 (within 30 minutes before dosing) and 0.5 hr, 1 hr, 2 hr, 4 hr, 8 hr, 12 hr, and 24 hr after the doses on Days 1 and 8. The blood concentrations of sepiapterin and BH4 were analyzed by MNG Labs.

[3] = fasted vs fed prior to administration

With `C[C@H](O)C(=O)C1=Nc2c(nc(N)[nH]c2=O)NC1` [sepiapterin, Sepiapterin] the “AUC0-24 of BH4, sepiapterin compared to BH4 administration” value [1] was “much higher”, the “AUC0-inf of BH4, sepiapterin compared to BH4 administration” value [1] was “much higher” and the “Sepiapterin Concentration in Plasma, Mean” value ([2]; fasted, 0 h (predose)) was 0 nM. The “Sepiapterin Concentration in Plasma, Median” value ([2]; fasted, 0 h (predose)) was 0 nM, the concentration at 24 h ([2]; fasted, 0 h (predose), read-out: Sepiapterin Concentration in Plasma, Maximum) was 0 nM and the concentration at 2 h ([2]; fasted, 0 h (predose), read-out: Sepiapterin Concentration in Plasma, Minimum) was 0 nM. For the same compound, the “Sepiapterin Concentration in Plasma, Mean” value ([2]; fasted, 8 h) was 0 nM, the “Sepiapterin Concentration in Plasma, Median” value ([2]; fasted, 8 h) was 0 nM and the concentration at 2 h ([2]; fasted, 8 h, read-out: Sepiapterin Concentration in Plasma, Minimum) was 0 nM. For the same compound, the “Sepiapterin Concentration in Plasma, Mean” value ([2]; fasted, 12 h) was 0 nM, the “Sepiapterin Concentration in Plasma, Median” value ([2]; fasted, 12 h) was 0 nM and the concentration at 2 h ([2]; fasted, 12 h, read-out: Sepiapterin Concentration in Plasma, Minimum) was 0 nM. For the same compound, the “Sepiapterin Concentration in Plasma, Mean” value ([2]; fasted, 24 h) was 0 nM, the “Sepiapterin Concentration in Plasma, Median” value ([2]; fasted, 24 h) was 0 nM and the concentration at 2 h ([2]; fasted, 24 h, read-out: Sepiapterin Concentration in Plasma, Minimum) was 0 nM. For the same compound, the “Sepiapterin Concentration in Plasma, Mean” value ([2]; fed, 0 h (predose)) was 0 nM, the “Sepiapterin Concentration in Plasma, Median” value ([2]; fed, 0 h (predose)) was 0 nM and the concentration at 24 h ([2]; fed, 0 h (predose), read-out: Sepiapterin Concentration in Plasma, Maximum) was 0 nM. For the same compound, the “Sepiapterin Concentration in Plasma, Median” value ([2]; fed, 0.5 h) was 0 nM, the concentration at 2 h ([2]; fed, 0.5 h, read-out: Sepiapterin Concentration in Plasma, Minimum) was 0 nM and the concentration at 2 h ([2]; fed, 4 h, read-out: Sepiapterin Concentration in Plasma, Minimum) was 0 nM. The “Sepiapterin Concentration in Plasma, Median” value ([2]; fed, 8 h) was 0 nM, the concentration at 2 h ([2]; fed, 8 h, read-out: Sepiapterin Concentration in Plasma, Minimum) was 0 nM and the “Sepiapterin Concentration in Plasma, Mean” value ([2]; fed, 12 h) was 0 nM. The “Sepiapterin Concentration in Plasma, Median” value ([2]; fed, 12 h) was 0 nM, the concentration at 24 h ([2]; fed, 12 h, read-out: Sepiapterin Concentration in Plasma, Maximum) was 0 nM and the concentration at 2 h ([2]; fed, 12 h, read-out: Sepiapterin Concentration in Plasma, Minimum) was 0 nM. The “Sepiapterin Concentration in Plasma, Mean” value ([2]; fed, 24 h) was 0 nM, the “Sepiapterin Concentration in Plasma, Median” value ([2]; fed, 24 h) was 0 nM and the concentration at 24 h ([2]; fed, 24 h, read-out: Sepiapterin Concentration in Plasma, Maximum) was 0 nM. For the same compound, the concentration at 2 h ([2]; fed, 24 h, read-out: Sepiapterin Concentration in Plasma, Minimum) was 0 nM, the concentration at 0.5 h ([2]; human, plasma, fasted, 0.5 h, read-out: Sepiapterin Concentration in Plasma, Minimum) was 0 nM and the concentration at 4 h ([2]; human, plasma, fasted, 4 h, read-out: Sepiapterin Concentration in Plasma, Minimum) was 0 nM. The concentration at 8 h ([2]; human, plasma, fasted, 8 h, read-out: Sepiapterin Concentration in Plasma, Maximum) was 0 nM, the concentration at 12 h ([2]; human, plasma, fasted, 12 h, read-out: Sepiapterin Concentration in Plasma, Maximum) was 0 nM and the concentration at 24 h ([2]; human, plasma, fasted, 24 h, read-out: Sepiapterin Concentration in Plasma, Maximum) was 0 nM. It also gave a concentration at 0 h ([2]; human, plasma, fed, 0 h (predose), read-out: Sepiapterin Concentration in Plasma, Minimum) of 0 nM, a concentration at 1 h ([2]; human, plasma, fed, 1 h, read-out: Sepiapterin Concentration in Plasma, Minimum) of 0 nM and a concentration at 2 h ([2]; human, plasma, fed, 2 h, read-out: Sepiapterin Concentration in Plasma, Minimum) of 0 nM. The “Cmax of BH4 in the plasma, fasted compared to fed” value [2, 3] was “much lower” and the “Cmax of sepiapterin in the plasma, fasted compared to fed” value [2, 3] was “much higher”.

From US12329757B2, “Methods for increasing sepiapterin plasma exposure” (PTC Therapeutics MP, Inc., priority 2018, dated 2025)
